# Test results as given in article PMC12521730, “Quantitative dual-isotope preclinical SPECT/CT imaging and biodistribution of the mercury-197m/g theranostic pair with [^197m/gHg]HgCl2 and a [^197m/gHg]Hg-tetrathiol complex as a platform for radiopharmaceutical development” (EJNMMI Radiopharmacy and Chemistry, 2025).
# Test: Ex vivo biodistribution (gamma counter)
# Assay type: in vivo, healthy male C57BL/6 mice
# Conditions: 2 h post administration
# Protocol: For animal injection, the tracer was prepared at high molar activity. Radiolabeling of H4Tetrathiol (10^–2 M in DMSO; 40 μL for imaging, 20 μL for bioD) (or DMSO, for [^197m/gHg]HgCl2 mice) with [^197m/gHg]HgCl2 (imaging: 26.7 MBq total m + g, 62 μL; bioD: 13.04 MBq total m + g, 31 μL) was performed in a mixture of ammonium acetate buffer (1 M; pH 7; 198 μL for imaging or 149 μL for bioD) and 6 M NaOH (72 μL or 38 μL required to achieve a pH of 7.5 after addition of activity, for imaging or BioD labeling, respectively). The reaction was allowed to stand for 1 h at 37 °C and quantitative (> 99%) non-isolated percentage radiochemical yield (%RCY) was confirmed via the iTLC methods mentioned above. Further, 100 µL of the reaction was diluted with 50 µL of PBS Tween-20 (0.01 M sodium phosphate, 0.15 M NaCl, 0.05% Tween-20) for imaging mice, or 50 µL of the reaction was diluted with 100 µL of PBS Tween-20 for BioD mice. The tracers were prepared immediately before injection to avoid radiolysis and minimize the tracer loss to any surfaces due to its lipophilicity. The injected doses of each isomer, ^197mHg and ^197gHg, were quantified by measuring an aliquot of known volume of each tracer preparation via HPGe gamma spectroscopy and decay corrected for time of injection using the Eqs. (1) and (2).
# The study was conducted in compliance with the guidelines set by the Canadian Council on Animal Care (CCAC) and approved by the Animal Care Committee (ACC) at the University of British Columbia (A20-0132). A total of eight healthy male C57BL/6 mice weighing approximately 30 g for group 1 and 25 g for group 2 were used in the study. The mice were divided into two experimental groups: group 1 (n = 4) received free [^197m/gHg]HgCl2, while group 2 (n = 4) received [^197m/gHg]Hg-Tetrathiol. Within each group, one mouse was allocated for imaging, while the rest were designated for ex vivo biodistribution analysis. For SPECT imaging, the designated mice were anesthetized using isoflurane via a precision vaporizer. […] Once anesthetized, each imaging mouse received an intravenous (IV) injection via the lateral tail vein of 150 μL of [^197m/gHg]HgCl2 (0.492 MBq ^197mHg + 3.171 MBq ^197gHg) or [^197m/gHg]Hg-Tetrathiol (0.899 MBq ^197mHg + 4.230 MBq ^197gHg) in PBS Tween-20 (0.01 M Na Phosphate, 0.15 M NaCl, 0.05% Tween-20).
# Mice received an IV injection of [^197m/gHg]HgCl2 (0.275 MBq ^197mHg + 1.758 MBq ^197gHg, 150 μL) or [^197m/gHg]Hg-Tetrathiol (0.384 MBq ^197mHg + 1.733 MBq ^197gHg, 150 μL) (n = 3 per group) via the lateral tail vein using a Tailveiner restrainer. After the injection, the mice were returned to their experimental cages and allowed unrestricted movement. Biodistribution studies were conducted 2 h after administration. Mice were humanely euthanized with an overdose of isoflurane followed by cardiac puncture to collect blood pool activity. The organs of interest were fully extracted, cleaned of blood without rinsing, weighed, and analysed for radioactivity using a calibrated gamma counter with the 55–93 keV energy window for ^197gHg and the 110–160 keV energy window for ^197mHg (Packard Cobra II, Perkin Elmer, Waltham, MA, USA). The stomach and intestines were carefully cleaned prior to analysis to remove residual contents. For tissues and fluids that could not be fully removed (muscle, blood and bone) activity values were extrapolated based on standardised organ weights for age- and sex-matched mice tables to ensure accurate normalization (Davies and Morris [1993]; Foster et al. [2014]). The stomach and whole intestines were cleaned before analysis. The radioactivity measurements were decay corrected for time of injection using the Eqs. (1) and (2). The results are reported as the percentage of the injected activity per gram of tissue (%IA/g) and percentage of the injected activity per tissue (%IA/organ).
smiles,measurement,setting,value
[Cl][Hg][Cl] [[^197m/gHg]HgCl2],Animal 4 (%IA/g) g: kidneys,Hg-197g,120 %IA/g
same,Animal 4 (%IA/g) g: large intestine,Hg-197g,2.62 %IA/g
same,Animal 4 (%IA/g) g: liver,Hg-197g,4.99 %IA/g
same,Animal 4 (%IA/g) g: lungs,Hg-197g,3.08 %IA/g
same,Animal 4 (%IA/g) g: muscle,Hg-197g,0.53 %IA/g
same,Animal 4 (%IA/g) g: pancreas,Hg-197g,1.46 %IA/g
same,Animal 4 (%IA/g) g: small intestine,Hg-197g,2.62 %IA/g
same,Animal 4 (%IA/g) g: spleen,Hg-197g,3.58 %IA/g
same,Animal 4 (%IA/g) g: stomach,Hg-197g,1.76 %IA/g
same,Animal 4 (%IA/g) g: tail,Hg-197g,3.76 %IA/g
same,Animal 4 (%IA/g) g: urine,Hg-197g,3.49 %IA/g
same,Average (%IA/Organ): bladder,Hg-197g,0.06 %IA/Organ
same,Average (%IA/Organ): blood,Hg-197g,5.81 %IA/Organ
same,Average (%IA/Organ): bone,Hg-197g,4.16 %IA/Organ
same,Average (%IA/Organ): brain,Hg-197g,0.05 %IA/Organ
same,Average (%IA/Organ): feces,Hg-197g,0.05 %IA/Organ
same,Average (%IA/Organ): heart,Hg-197g,0.25 %IA/Organ
same,Average (%IA/Organ): kidneys,Hg-197g,48.31 %IA/Organ
same,Average (%IA/Organ): large intestine,Hg-197g,0.57 %IA/Organ
same,Average (%IA/Organ): liver,Hg-197g,7.78 %IA/Organ
same,Average (%IA/Organ): lungs,Hg-197g,0.58 %IA/Organ
same,Average (%IA/Organ): muscle,Hg-197g,8.08 %IA/Organ
same,Average (%IA/Organ): pancreas,Hg-197g,0.25 %IA/Organ
same,Average (%IA/Organ): small intestine,Hg-197g,0.70 %IA/Organ
same,Average (%IA/Organ): spleen,Hg-197g,0.31 %IA/Organ
same,Average (%IA/Organ): stomach,Hg-197g,0.20 %IA/Organ
same,Average (%IA/Organ): tail,Hg-197g,2.59 %IA/Organ
same,Average (%IA/Organ): urine,Hg-197g,0.65 %IA/Organ
same,Average Hg-197g (%IA/g): bladder,Hg-197g,2.10 %IA/g
same,Average Hg-197g (%IA/g): blood,Hg-197g,3.53 %IA/g
same,Average Hg-197g (%IA/g): bone,Hg-197g,1.94 %IA/g
same,Average Hg-197g (%IA/g): brain,Hg-197g,0.13 %IA/g
same,Average Hg-197g (%IA/g): feces,Hg-197g,1.29 %IA/g
same,Average Hg-197g (%IA/g): heart,Hg-197g,1.79 %IA/g
same,Average Hg-197g (%IA/g): kidneys,Hg-197g,111.17 %IA/g
same,Average Hg-197g (%IA/g): large intestine,Hg-197g,2.77 %IA/g
same,Average Hg-197g (%IA/g): liver,Hg-197g,5.03 %IA/g
same,Average Hg-197g (%IA/g): lungs,Hg-197g,3.83 %IA/g
same,Average Hg-197g (%IA/g): muscle,Hg-197g,0.63 %IA/g
same,Average Hg-197g (%IA/g): pancreas,Hg-197g,1.48 %IA/g
same,Average Hg-197g (%IA/g): small intestine,Hg-197g,3.17 %IA/g
same,Average Hg-197g (%IA/g): spleen,Hg-197g,3.93 %IA/g
same,Average Hg-197g (%IA/g): stomach,Hg-197g,1.87 %IA/g
same,Average Hg-197g (%IA/g): tail,Hg-197g,5.12 %IA/g
same,Average Hg-197g (%IA/g): urine,Hg-197g,4.08 %IA/g
same,Animal 1 (%IA/g) m: bladder,Hg-197m,1.81 %IA/g
same,Animal 1 (%IA/g) m: blood,Hg-197m,8.43 %IA/g
same,Animal 1 (%IA/g) m: bone,Hg-197m,3.43 %IA/g
same,Animal 1 (%IA/g) m: brain,Hg-197m,0.27 %IA/g
same,Animal 1 (%IA/g) m: feces,Hg-197m,1.31 %IA/g
same,Animal 1 (%IA/g) m: heart,Hg-197m,3.85 %IA/g
same,Animal 1 (%IA/g) m: large intestine,Hg-197m,5.33 %IA/g
same,Animal 1 (%IA/g) m: lungs,Hg-197m,8.68 %IA/g
same,Animal 1 (%IA/g) m: muscle,Hg-197m,1.38 %IA/g
same,Animal 1 (%IA/g) m: pancreas,Hg-197m,2.69 %IA/g
same,Animal 1 (%IA/g) m: small intestine,Hg-197m,6.99 %IA/g
same,Animal 1 (%IA/g) m: spleen,Hg-197m,8.59 %IA/g
same,Animal 1 (%IA/g) m: stomach,Hg-197m,3.64 %IA/g
same,Animal 1 (%IA/g) m: tail,Hg-197m,16.30 %IA/g
same,Animal 1 (%IA/g) m: urine,Hg-197m,8.15 %IA/g
same,Animal 2 (%IA/g) m: bladder,Hg-197m,4.08 %IA/g
same,Animal 2 (%IA/g) m: blood,Hg-197m,5.94 %IA/g
same,Animal 2 (%IA/g) m: bone,Hg-197m,2.79 %IA/g
same,Animal 2 (%IA/g) m: brain,Hg-197m,0.15 %IA/g
same,Animal 2 (%IA/g) m: feces,Hg-197m,0.59 %IA/g
same,Animal 2 (%IA/g) m: heart,Hg-197m,2.24 %IA/g
same,Animal 2 (%IA/g) m: large intestine,Hg-197m,3.94 %IA/g
same,Animal 2 (%IA/g) m: liver,Hg-197m,10.33 %IA/g
same,Animal 2 (%IA/g) m: lungs,Hg-197m,4.50 %IA/g
same,Animal 2 (%IA/g) m: muscle,Hg-197m,0.74 %IA/g
same,Animal 2 (%IA/g) m: pancreas,Hg-197m,1.94 %IA/g
same,Animal 2 (%IA/g) m: small intestine,Hg-197m,4.20 %IA/g
same,Animal 2 (%IA/g) m: spleen,Hg-197m,4.74 %IA/g
same,Animal 2 (%IA/g) m: stomach,Hg-197m,2.42 %IA/g
same,Animal 2 (%IA/g) m: tail,Hg-197m,7.26 %IA/g
same,Animal 2 (%IA/g) m: urine,Hg-197m,5.31 %IA/g
same,Animal 3 (%IA/g) m: bladder,Hg-197m,2.14 %IA/g
same,Animal 3 (%IA/g) m: blood,Hg-197m,5.50 %IA/g
same,Animal 3 (%IA/g) m: bone,Hg-197m,2.67 %IA/g
same,Animal 3 (%IA/g) m: brain,Hg-197m,0.17 %IA/g
same,Animal 3 (%IA/g) m: feces,Hg-197m,3.93 %IA/g
same,Animal 3 (%IA/g) m: heart,Hg-197m,2.10 %IA/g
same,Animal 3 (%IA/g) m: large intestine,Hg-197m,3.68 %IA/g
same,Animal 3 (%IA/g) m: liver,Hg-197m,10.14 %IA/g
same,Animal 3 (%IA/g) m: lungs,Hg-197m,5.07 %IA/g
same,Animal 3 (%IA/g) m: muscle,Hg-197m,0.79 %IA/g
same,Animal 3 (%IA/g) m: pancreas,Hg-197m,2.04 %IA/g
same,Animal 3 (%IA/g) m: small intestine,Hg-197m,4.50 %IA/g
same,Animal 3 (%IA/g) m: spleen,Hg-197m,4.18 %IA/g
same,Animal 3 (%IA/g) m: stomach,Hg-197m,2.28 %IA/g
same,Animal 3 (%IA/g) m: tail,Hg-197m,7.21 %IA/g
same,Animal 3 (%IA/g) m: urine,Hg-197m,5.63 %IA/g
same,Animal 4 (%IA/g) m: bladder,Hg-197m,4.20 %IA/g
same,Animal 4 (%IA/g) m: blood,Hg-197m,4.96 %IA/g
same,Animal 4 (%IA/g) m: bone,Hg-197m,2.78 %IA/g
same,Animal 4 (%IA/g) m: brain,Hg-197m,0.17 %IA/g
same,Animal 4 (%IA/g) m: feces,Hg-197m,1.53 %IA/g
same,Animal 4 (%IA/g) m: heart,Hg-197m,2.14 %IA/g
same,Animal 4 (%IA/g) m: large intestine,Hg-197m,3.97 %IA/g
same,Animal 4 (%IA/g) m: liver,Hg-197m,10.31 %IA/g
same,Animal 4 (%IA/g) m: lungs,Hg-197m,4.53 %IA/g
same,Animal 4 (%IA/g) m: muscle,Hg-197m,0.81 %IA/g
same,Animal 4 (%IA/g) m: pancreas,Hg-197m,2.24 %IA/g
same,Animal 4 (%IA/g) m: small intestine,Hg-197m,3.96 %IA/g
same,Animal 4 (%IA/g) m: spleen,Hg-197m,5.42 %IA/g
same,Animal 4 (%IA/g) m: stomach,Hg-197m,2.56 %IA/g
same,Animal 4 (%IA/g) m: tail,Hg-197m,5.98 %IA/g
same,Animal 4 (%IA/g) m: urine,Hg-197m,5.02 %IA/g
same,Average Hg-197m (%IA/g): bladder,Hg-197m,3.06 %IA/g
same,Average Hg-197m (%IA/g): blood,Hg-197m,6.21 %IA/g
same,Average Hg-197m (%IA/g): bone,Hg-197m,2.92 %IA/g
same,Average Hg-197m (%IA/g): brain,Hg-197m,0.19 %IA/g
same,Average Hg-197m (%IA/g): feces,Hg-197m,1.84 %IA/g
same,Average Hg-197m (%IA/g): heart,Hg-197m,2.58 %IA/g
same,Average Hg-197m (%IA/g): large intestine,Hg-197m,4.23 %IA/g
same,Average Hg-197m (%IA/g): liver,Hg-197m,10.26 %IA/g
same,Average Hg-197m (%IA/g): lungs,Hg-197m,5.70 %IA/g
same,Average Hg-197m (%IA/g): muscle,Hg-197m,0.93 %IA/g
same,Average Hg-197m (%IA/g): pancreas,Hg-197m,2.23 %IA/g
same,Average Hg-197m (%IA/g): small intestine,Hg-197m,4.92 %IA/g
same,Average Hg-197m (%IA/g): spleen,Hg-197m,5.73 %IA/g
same,Average Hg-197m (%IA/g): stomach,Hg-197m,2.72 %IA/g
same,Average Hg-197m (%IA/g): tail,Hg-197m,9.19 %IA/g
same,Average Hg-197m (%IA/g): urine,Hg-197m,6.03 %IA/g
